Results published in ChEMBL document CHEMBL1129827, “Discovery of imidazo[1,2-c]pyrimidin-5(6H)-one heterosubstituted nucleoside analogues with potent activity against human hepatitis B virus in vitro” (Bioorg Med Chem Lett, 1997).
The source made the active and inactive calls. The calls are words filed in the database; no cut-off is given here.

How the values were obtained:
[1] = test system: MT4; assay: Compound was evaluated for the inhibition of replication of HIV-1 in MT-4 (human T helper) cells up to 300 uM; Not active; type: functional, cell-based
[2] = test system: HepG2; assay: Compound concentration required to inhibit 50% of extracellular replicating HBV (Hepatitis B virus) virion in human hepatoma cell line 2.2.15; type: functional, cell-based
[3] = Selectivity index (SI) is the ratio of CC50/EC90 for HBV virion; type: functional
[4] = test system: HepG2; assay: Compound concentration required to inhibit 90% of extracellular replicating HBV (Hepatitis B virus) virion in human hepatoma cell line 2.2.15; type: functional
[5] = Compound concentration that cause 50% cytotoxicity was determined by neutral red uptake in 2.2.15 Cells; type: cell-based, HepG2 2.2.15; conditions: human
[6] = Selectivity index (SI) is the ratio of CC50/EC90 for HBV RI; type: functional
[7] = test system: HepG2; assay: Compound concentration required to inhibit 90% of intracellular replicating HBV (Hepatitis B virus) RI in human hepatoma cell line 2.2.15; type: functional
[8] = test system: HepG2; assay: Compound concentration required to inhibit 50% of intracellular replicating HBV (Hepatitis B virus) RI in human hepatoma cell line 2.2.15; type: functional, cell-based
[9] = test system: MT4; assay: Compound was evaluated for the inhibition of replication of HIV-1 in MT-4 (human T helper) cells up to 300 uM; not active; type: functional, cell-based

Compound | EC50 [2] | EC90 [4] | EC90 [7] | EC50 [8] | Activity [1] | SI [3] | CC50 [5] | SI [6] | Activity [9]
O=c1n([C@H]2CO[C@H](CO)O2)ccc2nc(-c3ccc([N+](=O)[O-])cc3)cn12 | 12.5 µM | 108 µM |  |  | inactive | 5.7 | 517 µM |  | 
O=c1n([C@H]2CO[C@H](CO)O2)cc(F)c2nc(CO)cn12 | > 105 µM | > 105 µM |  |  |  |  | 1390 µM |  | 
O=c1n(C2CSC(CO)O2)ccc2nc(CO)cn12 (stereo not given) | 77.7 µM | 276 µM |  |  |  | 1.7 | 456 µM |  | inactive
CCOC(=O)c1cn2c(=O)n(C3CSC(CO)O3)ccc2n1 (stereo not given) | > 90 µM | > 90 µM |  |  |  |  | > 90 µM |  | 
O=c1n([C@H]2CO[C@@H](CO)O2)cc(F)c2nc(CO)cn12 | 15.1 µM | 33.3 µM | 66.6 µM | 29.1 µM |  | 36 | 1060 µM | 16 | 

The next molecules have a lower EC50 [2] than those just listed; values first:

EC50 [2] | EC90 [4] | EC90 [7] | EC50 [8] | Compound | Activity [1] | SI [3] | CC50 [5] | SI [6] | Activity [9]
4.8 µM |  |  |  | O=c1n(C2CSC(CO)O2)ccc2nc(-c3ccc([N+](=O)[O-])cc3)cn12 (stereo not given) | inactive | > 5.6 | > 26.7 µM |  | 
4.2 µM | 25.2 µM |  |  | O=c1n(C2COC(CO)O2)ccc2nc(-c3ccc(F)cc3)cn12 (stereo not given) |  | 34 | 850 µM |  | 
3.7 µM | 8.8 µM | 25 µM | 12.8 µM | O=c1n([C@H]2CO[C@H](CO)O2)cc(F)c2nc(-c3ccc([N+](=O)[O-])cc3)cn12 | inactive | 46 | 587 µM | 24 | 
2.3 µM | 10.9 µM |  |  | O=c1n([C@H]2CO[C@@H](CO)O2)ccc2nc(-c3ccc([N+](=O)[O-])cc3)cn12 |  | 45 | 486 µM |  | 
2 µM | 10.5 µM |  |  | O=c1n(C2COC(CO)O2)ccc2nc(CO)cn12 (stereo not given) |  | 59 | 618 µM |  | 
1.9 µM | 5.9 µM | 13.6 µM | 7.7 µM | O=c1n([C@H]2CO[C@@H](CO)O2)cc(F)c2nc(-c3ccc([N+](=O)[O-])cc3)cn12 |  | 180 | 1390 µM | 103 | 
1.5 µM | 6.9 µM | 10 µM | 3.2 µM | Nc1ccn([C@H]2CC[C@@H](CO)O2)c(=O)n1 [ZALCITABINE] |  |  | 233 µM | 23 | 
